Data from ChEMBL document CHEMBL6087415, “Discovery of new fungal jumonji H3K27 demethylase inhibitors for the treatment of Cryptococcus neoformans and Candida auris infections” (Eur J Med Chem, 2025).
In brackets after ≈: the same amount, converted by molar mass. One block for each compound: values may come before it. Activity calls are given as the source filed them. The calls are words filed in the database; no cut-off is given here.

How the values were obtained:
Cryptococcus neoformans [1] = test: Antifungal activity against Cryptococcus neoformans H99 assessed as reduction in fungal growth; type: functional
[Candida] auris [2] = Antifungal activity against Candida auris 0029 assessed as reduction in fungal growth; type: functional; details: Candidozyma auris
[Candida] auris [3] = Antifungal activity against Candida auris ATCC 15448 assessed as reduction in fungal growth; type: functional; details: Candidozyma auris
[4] = Solubility of compound in MeOH/H2O at pH 7 by HPLC analysis; type: physicochemical
Cryptococcus neoformans [5] = test: Antifungal activity against Cryptococcus neoformans H99 assessed as reduction in fungal growth incubated for 72 hrs in presence of 20 uM Fe2+; type: functional
[Candida] auris [6] = Antifungal activity against Candida auris 0029 assessed as inhibition of cell growth at 16 microg/ml measured for 72 hrs; type: functional; details: Candidozyma auris
Cryptococcus neoformans [7] = test: Effect on sterol composition in Cryptococcus neoformans H99 assessed as other sterols content at 1 microg/ml measured after 24 hrs by GC-MS analysis (reference value: 41.47%); type: functional; details: dose 1 µg/ml
Cryptococcus neoformans [8] = test: Antibiofilm activity against Cryptococcus neoformans H99 assessed as inhibition of biofilm formation at 1 microg/ml incubated for 24 hrs by XTT reduction assay; type: functional, organism-based; details: dose 1.0 µg/ml
[Candida] auris [9] = Induction of morphological changes in Candida auris 0029 assessed as cell wall damage by TEM analysis; type: functional, organism-based; details: Candidozyma auris
Cryptococcus neoformans [10] = test: Antifungal activity against Cryptococcus neoformans H99 assessed as reduction in fungal growth incubated for 72 hrs in presence of 5 uM Fe2+; type: functional
Cryptococcus neoformans [11] = test: Antibiofilm activity against Cryptococcus neoformans H99 assessed as appearance of surface collapse at 4 to 16 microg/ml measured for 48 hrs by SEM analysis; type: functional, organism-based; details: dose 4-16 µg/ml
[12] = Inhibition of Cryptococcus neoformans H99 JMJD3 by absorbance based analysis
Cryptococcus neoformans [13] = test: Fungicidal activity against Cryptococcus neoformans H99; type: functional
[Candida] auris [14] = Effect on sterol composition in Candida auris 0029 assessed as ergosterol content at 1 microg/ml measured after 24 hrs by GC-MS analysis (reference value: 100 %); type: functional, Candidozyma auris; details: dose 1 µg/ml
Cryptococcus neoformans [15] = test: Induction of morphological changes in Cryptococcus neoformans H99 assessed as sparse capsule at 1 to 4 microg/ml by TEM analysis; type: functional, organism-based; details: dose 1-4 µg/ml
[Candida] auris [16] = Synergistic antifungal activity against Candida auris 0029 assessed as inhibition of fungal growth incubated in presence of fluconazole; type: functional, organism-based; details: Candidozyma auris
[Candida] auris [17] = Antifungal activity against Candida auris 0029 infected in ICR mouse assessed as reduction in fungal burden in kidney at 2 to 5 mg/kg, ip administered for 5 days; type: functional, organism-based; details: Candidozyma auris, dose 2-5 mg/kg, time 5.0 day
[Candida] auris [18] = Antibiofilm activity against Candida auris 0029 assessed as inhibition of biofilm formation at 4 to 64 microg/ml incubated for 24 hrs by XTT reduction assay; type: functional, organism-based; details: Candidozyma auris, dose 4-64 µg/ml
[19] = Inhibition of Candida auris 0029 JMJD3 by absorbance based analysis; design: species or system Candidozyma auris
Cryptococcus neoformans [20] = test: Antifungal activity against Cryptococcus neoformans H99 infected in ICR mouse assessed as reduction in fungal burden in brain at 2 to 5 mg/kg, ip administered for 5 days; type: functional, organism-based; details: dose 2-5 mg/kg, time 5.0 day
Cryptococcus neoformans [21] = test: Antibiofilm activity against Cryptococcus neoformans H99 assessed as inhibition of capsule formation at 1 microg/ml incubated for 48 hrs by laser confocal microscopic analysis; type: functional, organism-based; details: dose 1.0 µg/ml
Candida albicans = test: Synergistic antifungal activity against Candida albicans assessed as inhibition of fungal growth incubated in presence of fluconazole; type: functional, organism-based
[22] = Metabolic stability in mouse liver microsome assessed as half life; type: ADME; details: liver microsomes
Cryptococcus neoformans [23] = test: Induction of morphological changes in Cryptococcus neoformans H99 assessed as damaged cell membrane at 1 to 4 microg/ml by TEM analysis; type: functional, organism-based; details: dose 1-4 µg/ml
Cryptococcus neoformans [24] = test: Antifungal activity against Cryptococcus neoformans H99 assessed as inhibition of cell growth at 4 microg/ml measured for 72 hrs; type: functional, organism-based; details: dose 4.0 µg/ml
[Candida] auris [25] = Fungicidal activity against Candida auris 0029; type: functional; details: Candidozyma auris
[Candida] auris [26] = Induction of morphological changes in Candida auris 0029 assessed as cell membrane damage by TEM analysis; type: functional, organism-based; details: Candidozyma auris
Cryptococcus neoformans [27] = test: Antibiofilm activity against Cryptococcus neoformans H99 assessed as inhibition of biofilm formation upto […] microg/ml incubated for 24 hrs by XTT reduction assay; type: functional, organism-based; details: dose <= 64.0 µg/ml
[Candida] auris [28] = Antibiofilm activity against Candida auris 0029 assessed as inhibition of biofilm formation upto […] microg/ml incubated for 24 hrs by XTT reduction assay; type: functional, organism-based; details: Candidozyma auris, dose <= 64.0 µg/ml
Cryptococcus neoformans [29] = test: Antifungal activity against Cryptococcus neoformans H99 assessed as reduction in fungal growth incubated for 72 hrs in presence of 80 uM Fe2+; type: functional
[30] = Cytotoxicity against HUVEC cells; type: toxicity, cell-based; details: human
Cryptococcus neoformans [31] = test: Antifungal activity against Cryptococcus neoformans H99 assessed as reduction in fungal growth incubated for 72 hrs in presence of 10 uM Fe2+; type: functional
Cryptococcus neoformans [32] = test: Antibiofilm activity against Cryptococcus neoformans H99 assessed as appearance of blurred capsule at 4 microg/ml measured for 48 hrs by SEM analysis; type: functional, organism-based; details: dose 4.0 µg/ml
[Candida] auris [33] = Effect on sterol composition in Candida auris 0029 assessed as other sterols content at 1 microg/ml measured after 24 hrs by GC-MS analysis; type: functional, Candidozyma auris; details: dose 1 µg/ml
Cryptococcus neoformans [34] = test: Effect on sterol composition in Cryptococcus neoformans H99 assessed as ergosterol content at 1 microg/ml measured after 24 hrs by GC-MS analysis (reference value: 58.53%); type: functional; details: dose 1 µg/ml
[35] = Metabolic stability in mouse liver microsome assessed as clearance; type: ADME; details: liver microsomes, read-out: CLH
[36] = Hemolytic activity in rabbit erythrocytes assessed as hemolysis at 10 to 100 uM relative to control; type: toxicity, cell-based, Oryctolagus cuniculus, Erythrocyte; details: dose 10-100 µM, read-out: Activity
Cryptococcus neoformans [37] = test: Antifungal activity against Cryptococcus neoformans H99 assessed as reduction in fungal growth incubated for 72 hrs in presence of 40 uM Fe2+; type: functional
[Candida] auris [38] = Antibiofilm activity against Candida auris 0029 assessed as appearance of surface collapse at 4 to 16 microg/ml measured for 48 hrs by SEM analysis; type: functional, organism-based; details: Candidozyma auris, dose 4-16 µg/ml
Cryptococcus neoformans [39] = test: Antifungal activity against Cryptococcus neoformans H99 assessed as reduction in fungal growth incubated for 72 hrs in presence of 1 uM Fe2+; type: functional

- MIC80 (Cryptococcus neoformans [1]): 1 µg/mL (≈ 3.24 µM)
- MIC80 ([Candida] auris [2]): 4 µg/mL (≈ 13 µM)
- MIC80 ([Candida] auris [3]): 0.5 µg/mL (≈ 1.62 µM)
Compound: Clc1cccnc1N/N=C(\c1ccccc1)c1ccccn1

- MIC80 (Cryptococcus neoformans [1]): 0.5 µg/mL (≈ 1.66 µM)
- MIC80 ([Candida] auris [2]): 2 µg/mL (≈ 6.66 µM)
- MIC80 ([Candida] auris [3]): 0.125 µg/mL (≈ 0.416 µM)
- solubility [4]: 3.93 µg/mL (≈ 13.1 µM)
Compound: N#Cc1ccc(NN=C(c2ccccn2)c2ccccn2)nc1

- MIC80 (Cryptococcus neoformans [1]): 32 µg/mL (≈ 105 µM)
- MIC80 ([Candida] auris [2]): > 64 µg/mL
- MIC80 ([Candida] auris [3]): 64 µg/mL (≈ 211 µM)
Compound: Cc1ccc(NC(=O)C(c2ccccc2)c2ccccn2)nc1 (stereo not drawn)

- MIC80 (Cryptococcus neoformans [1]): 32 µg/mL (≈ 93.7 µM)
- MIC80 ([Candida] auris [2]): > 64 µg/mL
- MIC80 ([Candida] auris [3]): > 64 µg/mL
Compound: FC(F)(F)c1ccc(N/N=C(\c2ccccc2)c2ccccn2)cc1

- MIC80 (Cryptococcus neoformans [1]): 16 µg/mL (≈ 46.7 µM)
- MIC80 ([Candida] auris [2]): > 64 µg/mL
- MIC80 ([Candida] auris [3]): > 64 µg/mL
Compound: FC(F)(F)c1ccc(NN=C(c2ccccn2)c2ccccn2)cc1

- MIC80 (Cryptococcus neoformans [1]): 64 µg/mL (≈ 212 µM)
- MIC80 ([Candida] auris [2]): > 64 µg/mL
- MIC80 ([Candida] auris [3]): > 64 µg/mL
Compound: Cc1ccnc(-n2c(=O)n(-c3ccccn3)c3ccccc32)c1

- MIC (Cryptococcus neoformans [5]): 16 µg/mL
- MIC80 (Cryptococcus neoformans [1]): 0.5 µg/mL (≈ 1.64 µM)
- MIC (Cryptococcus neoformans [10]): 4 µg/mL
- IC50 [12]: 0.134 µM
- MIC80 ([Candida] auris [2]): 2 µg/mL (≈ 6.55 µM)
- IC50 [19]: 0.012 µM
- half-life [22]: 50.6 min
- MIC (Cryptococcus neoformans [29]): 32 µg/mL
- MIC (Cryptococcus neoformans [31]): 8 µg/mL
- MIC80 ([Candida] auris [3]): 0.125 µg/mL (≈ 0.409 µM)
- CLint scaled [35]: 108 mL/min/kg
- solubility [4]: 79.2 µg/mL (≈ 259 µM)
- MIC (Cryptococcus neoformans [37]): 16 µg/mL
- MIC (Cryptococcus neoformans [39]): 2 µg/mL
Compound: COc1ccc(NN=C(c2ccccn2)c2ccccn2)nc1
- inhibition at 16 µg/mL ([Candida] auris [6]): 100%
- Activity (Cryptococcus neoformans [7]): 41.52%
- Activity (Cryptococcus neoformans [8]): Active
- Activity ([Candida] auris [9]): Active
- Activity (Cryptococcus neoformans [11]): Active
- MFC (Cryptococcus neoformans [13]): 8 µg/mL (≈ 26.2 µM)
- Activity ([Candida] auris [14]): 56.93%
- Activity (Cryptococcus neoformans [15]): Active
- Activity ([Candida] auris [16]): inactive
- Activity ([Candida] auris [17]): Active
- Activity ([Candida] auris [18]): Active
- Activity (Cryptococcus neoformans [20]): Active
- Activity (Cryptococcus neoformans [21]): Active
- Activity (Candida albicans): inactive
- Activity (Cryptococcus neoformans [23]): Active
- Activity (Cryptococcus neoformans [24]): Active
- MFC ([Candida] auris [25]): 64 µg/mL (≈ 210 µM)
- Activity ([Candida] auris [26]): Active
- Activity (Cryptococcus neoformans [27]): Active
- Activity ([Candida] auris [28]): Active
- IC50 [30]: 0.246 µM
- Activity (Cryptococcus neoformans [32]): Active
- Activity ([Candida] auris [33]): 43.07%
- Activity (Cryptococcus neoformans [34]): 43.82%
- hemolysis at 100 µM [36]: < 3%
- Activity ([Candida] auris [38]): Active

- MIC80 (Cryptococcus neoformans [1]): 32 µg/mL (≈ 110 µM)
- MIC80 ([Candida] auris [2]): 64 µg/mL (≈ 220 µM)
- MIC80 ([Candida] auris [3]): 32 µg/mL (≈ 110 µM)
Compound: Fc1ccc(N/N=C(/c2ccccc2)c2ccccn2)cc1

- MIC80 (Cryptococcus neoformans [1]): > 64 µg/mL
- MIC80 ([Candida] auris [2]): > 64 µg/mL
- MIC80 ([Candida] auris [3]): > 64 µg/mL
Compound: FC(F)(F)c1ccc(N/N=C(/c2ccccc2)c2ccccn2)cc1

- MIC80 (Cryptococcus neoformans [1]): 64 µg/mL (≈ 189 µM)
- MIC80 ([Candida] auris [2]): > 64 µg/mL
- MIC80 ([Candida] auris [3]): > 64 µg/mL
Compound: S=c1n(-c2ccccn2)c2ccccc2n1-c1ccc(Cl)cn1
